Values of other authors in US12281362B2, “Diagnostic tools and treatments for clear cell renal cell carcinoma” (University of Cincinnati, priority 2020, dated 2025).

Assays:
localized RCC = details: adjuvant setting
[1] = clinic

SMILES	survival (localized RCC)	adverse effects [1]
CNC(=O)c1cc(Oc2ccc(NC(=O)Nc3ccc(Cl)c(C(F)(F)F)c3)cc2)ccn1 [sorafenib]	did not improve survival	
CCN(CC)CCNC(=O)c1c(C)[nH]c(/C=C2\C(=O)Nc3ccc(F)cc32)c1C [Sunitinib]		serious adverse effects
